Measurements published in patent US10941114B2, “Small molecule lipid II inhibitors” (University Of Maryland, Baltimore, priority 2015, dated 2021).
Structures can show the parent of a compound that is named as a salt.

How the values were obtained:
[1] = tested on: Enterococcus faecalis; assay: Antibacterial activity assay (MIC, broth dilution); format: cell-based
[2] = tested on: Staphylococcus aureus; assay: Antibacterial activity assay (MIC, broth dilution); format: cell-based; set-up: S. aureus Killing / Bacterial Killing S. aureus: unit not given here; conditions: for MIC SA USA300: Staphylococcus aureus USA 300 strain, broth microdilution; for MIC: Staphylococcus aureus, Table 21, read-out: Staphylococcus aureus MIC; for S. aureus Killing: anti-bacterial activity (MIC), strain not stated

Compound	S. aureus Killing [2]	also measured
CN(C)c1ccc(/C=C/c2cc(-c3ccc(Cl)cc3)cc(-c3ccc(F)cc3)[n+]2C)cc1.[I-] [Compound 2jc43-1, (E)-4-(4-chlorophenyl)-2-(4-(dimethylamino)styryl)-6-(4-fluorophenyl)-1-methylpyridin-1-ium iodide salt]		MIC EF 15951 ([1]; Enterococcus faecalis 15951, broth microdilution): 2 µg/mL; MIC SA USA300 [2]: 4 µg/mL
CN(C)c1ccc(/C=C/c2cc(-c3ccc(F)c(F)c3)cc(-c3ccc(F)c(F)c3)[o+]2)cc1.F[B-](F)(F)F		MIC ([1]; Enterococcus faecalis, Table 21, read-out: Escherichia feacalis MIC): > 64 µg/mL; MIC [2]: > 64 µg/mL
Cc1ccc(-c2cc(/C=C/c3c[nH]c4ccccc34)[o+]c(-c3ccc(C)c(C)c3)c2)cc1C [(E)-2-(2-(1H-indol-3-yl)vinyl)-4,6-bis(3,4-dimethylphenyl) pyrylium boron tetrafluoride salt]	4	
CCc1ccc(-c2cc(/C=C/c3ccc(N(C)C)cc3)[o+]c(-c3ccc(CC)cc3)c2)cc1 [(E)-2-(4-(dimethylamino)styryl)-4,6-bis(4-ethylphenyl) pyryliurn boron tetrafluoride salt]	1	
CN(CCC#N)c1ccc(/C=C/c2cc(-c3ccc(Br)cc3)cc(-c3ccc(Br)cc3)[o+]2)cc1 [Compound 3jc09-2, (E)-2,4-bis(4-bromophenyl)-6-(4-((2-cyanoethyl)(methyl)amino)styryl)pyrylium boron tetrafluoride salt]		MIC SA USA300 [2]: > 64 µg/mL
CN(C)c1ccc(/C=C/c2cc(-c3ccc(I)cc3)cc(-c3ccc(Br)cc3)[n+]2C)cc1.[I-] [Compound 3jc07-11, (E)-2-(4-bromophenyl)-6-(4-(dimethylamino)styryl)-4-(4-iodophenyl)-1-methylpyridin-1-ium iodide salt]		MIC SA USA300 [2]: 4 µg/mL
Cc1ccc(-c2cc(/C=C/C=C/c3ccc(N(C)C)cc3)[o+]c(-c3ccc(C)cc3)c2)cc1 [2-((1E,3E)-4-(4-(dimethylamino)phenyl)buta-1,3-dien-1-yl)-4,6-di-p-tolylpyrylium boron tetrafluoride salt]	2	
CN(C)c1ccc(/C=C/c2cc(-c3ccc(C(F)(F)F)cc3)cc(-c3ccc(C(F)(F)F)cc3)[o+]2)cc1.F[B-](F)(F)F		MIC [2]: > 64 µg/mL
CN(C)c1ccc(/C=C/c2cc(-c3ccccc3)cc(-c3ccccc3)[o+]2)cc1 [(E)-2-(4-(dimethylamino)styryl)-4,6-diphenylpyrylium boron tetrafluoride salt]	2	
Cc1ccc(-c2cc(/C=C/c3ccc(N(C)C)cc3)[o+]c(-c3ccc(C)cc3)c2)cc1 [(E)-2-(4-(dimethylamino)styryl)-4,6-di-p-tolylpyrylium boron tetrafluoride salt]	0.5	
CC(C)(C)c1ccc(-c2cc(/C=C/c3c[nH]c4ccccc34)[o+]c(-c3ccc(C(C)(C)C)cc3)c2)cc1 [(E)-2-(2-(1H-mdol-3-yl)vinyl)-4,6-bis(4-(tert-butyl)phenyl) pyrylium boron tetrafluoride salt]	32	
Cc1ccc(-c2cc(C)[o+]c(-c3ccc(C)cc3)c2)cc1 [2-methyl-4,6-di-p-tolylpyrylium boron tetrafluoride salt]	>64	
CN(C)c1ccc(/C=C/C=C/c2cc(-c3ccc(Cl)cc3)cc(-c3ccc(Cl)cc3)[o+]2)cc1 [2,4-bis(4-chlorophenyl)-6-((1E,3E)-4-(4-(dimethylamino)phenyl)buta-1,3-dien-1-yl)pyrylium boron tetrafluoride salt]	>64	
COc1ccc(-c2cc(/C=C/c3ccc(N(C)CCC#N)cc3)[n+](C)c(-c3ccc(F)cc3)c2)cc1.[I-] [Compound 3jc07-6, (E)-2-(4-((2-cyanoethyl)(methyl)amino)styryl)-6-(4-fluorophenyl)-4-(4-methoxyphenyl)-1-methylpyridin-1-ium iodide salt]		MIC SA USA300 [2]: 16 µg/mL
Cc1cc(/C=C/c2ccc(N(C)C)cc2)cc(C)[o+]1 [(E)-4-(4-(dimethylamino)styryl)-2,6-dimethvlpyrylium boron tetrafluoride salt]	16	
CN(CCC#N)c1ccc(/C=C/c2cc(-c3ccc(I)cc3)cc(-c3ccc(Br)cc3)[n+]2C)cc1 [Compound 3jc07-12, (E)-2-(4-bromophenyl)-6-(4-((2-cyanoethyl)(methyl)amino)styryl)-4-(4-iodophenyl)-1-methylpyridin-1-ium iodide salt]		MIC SA USA300 [2]: 32 µg/mL
CC(C)(C)c1ccc(-c2cc(/C=C/c3cc4c5c(c3)CCCN5CCC4)[o+]c(-c3ccc(C(C)(C)C)cc3)c2)cc1 [(E)-2,4-bis(4-(tert-butyl)phenyl)-6-(2-(1,2,3,5,6,7-hexahydropyrido [3,2,1-ij]quinolin-9-yl)vinyl)pyrylium boron tetrafluoride salt]	32	
Cc1cc(-c2ccccc2)cc(-c2ccccc2)[o+]1 [2-methy1-4,6-diphenylpyrylium boron tetrafluoride salt]	>64	
Brc1ccc(-c2cc(/C=C/c3cc4c5c(c3)CCCN5CCC4)[o+]c(-c3ccc(Br)cc3)c2)cc1 [(E)-2,4-bis(4~ bromophenyl)-6-(2-(1,2,3,5,6,7-hexahydropyrido [3,2,1-ij]quinolin-9-yl)vinyl)pyrylium boron tetrafluoride salt]	4	
CN(CCC#N)c1ccc(/C=C/c2cc(-c3ccc(I)cc3)cc(-c3ccc(F)cc3)[n+]2C)cc1.[I-] [Compound 3jc07-10, (E)-2-(4-((2-cyanoethyl)(methyl)amino)styryl)-6-(4-fluorophenyl)-4-(4-iodophenyl)-1-methylpyridin-1-ium iodide salt]		MIC SA USA300 [2]: 32 µg/mL
Cc1ccc(-c2cc(/C=C/c3cc4c5c(c3)CCCN5CCC4)[o+]c(-c3ccc(C)c(C)c3)c2)cc1C [drawing 122, (E)-2,4-bis(3.4-dimethyiphenyl)-6-(2-(1,2,3,5,6,7-hexahydropyrido [3,2,1-ij]quinolin-9-yl)vinyl)pyrylium boron tetrafluoride salt]	0.5	
CN(C)c1ccc(/C=C/C=C/c2cc(-c3ccccc3)cc(-c3ccccc3)[o+]2)cc1 [2-((1E,3E)-4-(4-(dimethylamino)phenyl)buta-1,3-dien-1-yl)-4,6-diphenyl pyrylium boron tetrafluoride salt]	4	
Cn1cc(/C=C/c2cc(-c3ccc(C(C)(C)C)cc3)cc(-c3ccc(C(C)(C)C)cc3)[o+]2)c2ccccc21 [(E)-2,4-bis(4-(tert-butyl)phenyl)-6-(2-(1-methyl-1H-indol-3-yl)vinyl)pyrylium boron tetrafluoride salt]	16	
Cn1cc(/C=C/c2cc(-c3ccccc3)cc(-c3ccccc3)[o+]2)c2ccccc21 [(E)-2-(2-(1-methyl-1H-indol-3-yl)vinyl)-4,6-diphenylpyrylium boron tetrafluoride salt]	0.5	
Cn1cc(/C=C/c2cc(-c3ccc(Br)cc3)cc(-c3ccc(Br)cc3)[o+]2)c2ccccc21 [(E)-2,4-bis(4-bromophenyl)-6-(2-(1-methyl-1H-indol-3-yl)vinyl)pyrylium boron tetrafluoride salt]	64	
CN(C)c1ccc(/C=C/c2cc(-c3ccccc3)cc(-c3ccc(F)cc3)[n+]2C)cc1.[I-] [Compound 3jc07-1, (E)-2-(4-(dimethylamino)styryl)-6-(4-fluorophenyl)-1-methyl-4-phenylpyridin-1-ium iodide salt]		MIC SA USA300 [2]: 4 µg/mL
